Results published in ChEMBL document CHEMBL1177672, “Discovery of orally available spirodiketopiperazine-based CCR5 antagonists” (Bioorg Med Chem, 2010).

Tests used:
[1] = target: C-C chemokine receptor type 5 (Homo sapiens, UniProt P51681); assay: Antagonist activity at human CCR5 receptor expressed in CHO cells assessed as inhibition of MIP-1-alpha-stmulated calcium mobilization; assay type: functional, cell-based
Liver microsomes [2] = assay: Half life in rat liver microsome at 0.2 mg/ml; assay type: ADME
Liver microsomes [3] = assay: (§1) Metabolic stability in rat liver microsomes assessed as compound remaining at 0.5 mg/ml after 15 mins; assay type: ADME, Microsome; settings: microsomes, 0.25 h
[4] = Half life in rat at 3 mg/kg, iv; assay type: ADME, organism-based; set-up: dose 3 mg/kg, route intravenous; settings: in vivo
[5] = Cmax in rat at 30 mg/kg, po; assay type: ADME, organism-based; set-up: dose 30 mg/kg, route oral; settings: in vivo
Caco-2 [6] = assay: Apparent permeability from basolateral to apical side of human Caco-2 cells; assay type: ADME, cell-based
Caco-2 [7] = assay: Apparent permeability from apical to basolateral side of human Caco-2 cells; assay type: ADME, cell-based
[8] = Aqueous solubility of the compound; assay type: physicochemical; settings: buffer
Rattus norvegicus [9] = assay: (§2) AUC in rat at 30 mg/kg, po; assay type: ADME, organism-based, Plasma; set-up: dose 30 mg/kg, route oral; settings: in vivo
[10] = Half life in rat at 30 mg/kg, po; assay type: ADME, organism-based; set-up: dose 30 mg/kg, route oral; settings: in vivo
Rattus norvegicus [11] = assay: AUC in rat at 3 mg/kg, iv; assay type: ADME, organism-based, Plasma; set-up: dose 3 mg/kg, route intravenous; settings: in vivo
[12] = as §1; assay type: ADME, Microsome; settings: liver microsomes, read-out: Stability
[13] = as §2; assay type: ADME, organism-based, Plasma; set-up: dose 30 mg/kg, route oral; settings: plasma
[14] = Clearance in rat at 3 mg/kg, iv; assay type: ADME, organism-based; set-up: dose 3 mg/kg, route intravenous; settings: in vivo
[15] = system: Human immunodeficiency virus 1; assay: microbe, parasite or virus in culture; settings: Human immunodeficiency virus 1, BAL
Description: Antiviral activity against HIV1 BAL by p24 assay

[16] = Volume of distribution at steadt state in rat at 3 mg/kg, iv; settings: in vivo
[17] = Oral bioavailability in rat at 30 mg/kg; assay type: ADME, organism-based; settings: in vivo

Chain of C-C chemokine receptor type 5 (P51681 whole entry): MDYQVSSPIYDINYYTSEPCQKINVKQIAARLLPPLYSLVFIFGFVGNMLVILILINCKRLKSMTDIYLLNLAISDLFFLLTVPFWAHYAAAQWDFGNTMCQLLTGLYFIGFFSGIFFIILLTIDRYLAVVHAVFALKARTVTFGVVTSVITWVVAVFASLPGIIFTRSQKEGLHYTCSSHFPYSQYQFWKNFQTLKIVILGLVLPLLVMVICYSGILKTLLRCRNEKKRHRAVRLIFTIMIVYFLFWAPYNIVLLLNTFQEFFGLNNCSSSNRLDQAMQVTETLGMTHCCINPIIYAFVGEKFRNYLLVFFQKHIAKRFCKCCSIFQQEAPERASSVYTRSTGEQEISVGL

| SMILES | IC50 [1] | t1/2 (Liver microsomes [2]) | Stability (Liver microsomes [3]) | other results |
| --- | --- | --- | --- | --- |
| CCCCN1C(=O)C(CC2CCCCC2)NC(=O)C12CCN(Cc1c[nH]c(-c3ccccc3)n1)CC2 (racemic) | 160 nM | – | – | – |
| CC#CCN1C(=O)C(CC(C)C)NC(=O)C12CCN(Cc1ccc(Oc3ccccc3)cc1)CC2.Cl (racemic) | 54 nM | 15 min | – | – |
| C/C=C/CN1C(=O)C(CC(C)C)NC(=O)C12CCN(Cc1ccc(Oc3ccccc3)cc1)CC2.Cl (racemic) | 69 nM | 14 min | – | – |
| CCCCN1C(=O)[C@H](CC2CCCCC2)NC(=O)C12CCN(Cc1ccc(Oc3ccc(F)cc3)cc1)CC2.Cl | 92 nM | – | 53% | – |
| CC(C)CC1NC(=O)C2(CCN(Cc3ccc(Oc4ccccc4)cc3)CC2)N(Cc2ccccc2)C1=O (racemic) | 300 nM | – | – | – |
| CCCCN1C(=O)C(CC(C)C)NC(=O)C12CCN(Cc1ccc(Oc3ccccc3)cc1)CC2.Cl (racemic) | – | 12 min | – | half-life [4]: 13 min; Cmax [5]: 100 ng/mL; Papp (Caco-2 [6]): 2.23 ×10⁻⁶ cm/s; Papp (Caco-2 [7]): 1.51 ×10⁻⁶ cm/s; solubility [8]: 14 µM; AUC (Rattus norvegicus [9]): 290 ng·h/mL; half-life [10]: 75.7 min; AUC (Rattus norvegicus [11]): 372 ng |
| CCCCN1C(=O)[C@H](CC(C)C)NC(=O)C12CCN(Cc1ccc(Oc3ccccc3)cc1)CC2.Cl | – | 7.1 min | – | – |
| CCCCN1C(=O)C(CCCC2CCCCC2)NC(=O)C12CCN(Cc1ccc(Oc3ccccc3)cc1)CC2.Cl (racemic) | > 3000 nM | 23 min | – | – |
| CCCCN1C(=O)C(CC2CCCCC2)NC(=O)C12CCN(Cc1ccc(OC)cc1)CC2.Cl (racemic) | – | 8.3 min | – | – |
| CCCCN1C(=O)[C@H](CC(C)(C)C)NC(=O)C12CCN(Cc1ccc(Oc3ccccc3)cc1)CC2.Cl | 79 nM | 12 min | – | – |
| CCCCN1C(=O)[C@H](CC2CCCCC2)NC(=O)C12CCN(Cc1ccc(Oc3ccc(C(=O)O)cc3)cc1)CC2.Cl | – | – | – | Papp (Caco-2 [6]): 16.8 ×10⁻⁶ cm/s; remaining at 0.25 h [12]: 22%; Papp (Caco-2 [7]): 11 ×10⁻⁶ cm/s; solubility [8]: 29 µM |
| CCCCN1C(=O)[C@H](CC2CCCCC2)NC(=O)C12CCN(Cc1ccc(Oc3ccc(O)cc3)cc1)CC2.Cl | 42 nM | – | 22% | Cmax [5]: 100 ng/mL; Papp (Caco-2 [6]): 0.14 ×10⁻⁶ cm/s; Papp (Caco-2 [7]): 0.33 ×10⁻⁶ cm/s; solubility [8]: < 5 µM; AUC [13]: 195 ng·h/mL; half-life [10]: 205 min |
| CCCCN1C(=O)C(CC2CCCCC2)NC(=O)C12CCN(C(=O)OCc1ccccc1)CC2 (racemic) | 3000 nM | – | – | – |
| CCCCN1C(=O)[C@H](CC2CCCCC2)NC(=O)C12CCN(Cc1nc(-c3ccccc3)oc1C)CC2 | 450 nM | – | – | – |
| CCCCN1C(=O)[C@H](CC2CCCCC2)NC(=O)C12CCN(Cc1ccc(C(=O)c3ccccc3)cc1)CC2.Cl | 81 nM | – | 23% | – |
| CCCCN1C(=O)C(CC(=O)OCc2ccccc2)NC(=O)C12CCN(Cc1ccc(Oc3ccccc3)cc1)CC2 (racemic) | 590 nM | – | – | – |
| CCCCN1C(=O)C(CC2CCCCC2)NC(=O)C12CCN(Cc1ccc(Oc3ccccc3)nc1)CC2.Cl.Cl (racemic) | 21 nM | – | 10% | – |
| CC(C)CC1NC(=O)C2(CCN(Cc3ccc(Oc4ccccc4)cc3)CC2)N(CC(C)C)C1=O.Cl (racemic) | 330 nM | 15 min | – | – |

| SMILES | IC50 [1] | t1/2 (Liver microsomes [2]) | Stability (Liver microsomes [3]) | other results |
| --- | --- | --- | --- | --- |
| CCCCN1C(=O)[C@H](CC2CCCCC2)NC(=O)C12CCN(Cc1ccc(Sc3ccccc3)cc1)CC2.Cl | 170 nM | – | 38% | – |
| CCCCN1C(=O)[C@H](CC2CCCCC2)NC(=O)C12CCN(Cc1ccc(-c3cccnc3)cc1)CC2.Cl.Cl | 71 nM | – | 29% | – |
| CCCCN1C(=O)[C@H](CC2CCCCC2)NC(=O)C12CCN(Cc1ccc(S(=O)(=O)c3ccccc3)cc1)CC2.Cl | 86 nM | – | 19% | – |
| CCCCN1C(=O)C(CC2CCCCC2)NC(=O)C12CCN(Cc1ccc(Oc3ccccc3)cc1)CC2.Cl (racemic) | – | 24 min | – | half-life [4]: 19.9 min; Papp (Caco-2 [6]): 0.27 ×10⁻⁶ cm/s; clearance [14]: 113 mL/min/kg; Papp (Caco-2 [7]): 0.15 ×10⁻⁶ cm/s; solubility [8]: < 5 µM; AUC [13]: 74.4 ng·h/mL; AUC (Rattus norvegicus [11]): 400 ng |
| CCCCN1C(=O)[C@H](CC2CCCCC2)NC(=O)C12CCN(Cc1ccc(Oc3ccc(NS(C)(=O)=O)cc3)cc1)CC2.Cl | 40 nM | – | 15% | – |
| CCCCN1C(=O)C(CC2CCCCC2)NC(=O)C12CCN(Cc1c(C)nn(-c3ccccc3)c1C)CC2.Cl.Cl (racemic) | 35 nM | – | 23% | – |
| CCCCN1C(=O)[C@H](CC2CCCCC2)NC(=O)C12CCN(Cc1ccc(Oc3ccc(C)cc3)cc1)CC2.Cl | 79 nM | – | 48% | – |
| CCCCN1C(=O)C(CCC)NC(=O)C12CCN(Cc1ccc(Oc3ccccc3)cc1)CC2.Cl (racemic) | 50 nM | 22 min | – | – |
| CCCCN1C(=O)C(CC2CCCC2)NC(=O)C12CCN(Cc1ccc(Oc3ccccc3)cc1)CC2.Cl (racemic) | 52 nM | 20 min | – | – |
| CCCCN1C(=O)C(CC2CCCCC2)NC(=O)C12CCN(c1ccc(C(=O)OCC)cc1)CC2 (racemic) | > 3000 nM | – | – | – |
| CCCCN1C(=O)[C@H](CC2CCCCC2)NC(=O)C12CCN(Cc1ccc(Oc3ccc(S(N)(=O)=O)cc3)cc1)CC2.Cl | 28 nM | – | 24% | IC50 [15]: 10 nM |
| CCCCN1C(=O)[C@H](CC2CCCCC2)NC(=O)C12CCN(Cc1ccc(C(=O)Nc3ccccc3)cc1)CC2.Cl | 57 nM | – | 29% | – |
| CC(C)CC1NC(=O)C2(CCN(Cc3ccc(Oc4ccccc4)cc3)CC2)N(CCC(C)O)C1=O.Cl (racemic) | > 3000 nM | 12 min | – | Vd [16]: 0.145 L/kg; half-life [4]: 11.1 min; Cmax [5]: 7200 ng/mL; clearance [14]: 16 mL/min/kg; bioavailability [17]: 34.1%; AUC [13]: 10500 ng·h/mL; half-life [10]: 48.4 min |
| CCCCN1C(=O)C(CC(=O)O)NC(=O)C12CCN(Cc1ccc(Oc3ccccc3)cc1)CC2 (racemic) | > 3000 nM | – | – | – |
| CCCCN1C(=O)[C@H](CC2CCCCC2)NC(=O)C12CCN(CCc1ccc(Oc3ccccc3)cc1)CC2 | > 3000 nM | – | – | – |
| CCCCN1C(=O)C(CC2CCCCC2)NC(=O)C12CCN(Cc1csc(-c3ccccc3)n1)CC2 (racemic) | 570 nM | – | – | – |
| CCCCN1C(=O)[C@H](CC2CCCCC2)NC(=O)C12CCN(Cc1ccc(Oc3ccc(OC)cc3)cc1)CC2.Cl | 130 nM | – | 34% | – |
| CCCCN1C(=O)[C@H](CC2CCCCC2)NC(=O)C12CCN(Cc1ccc(Oc3ccc(C(=O)NC)cc3)cc1)CC2.Cl | 33 nM | – | 4% | Papp (Caco-2 [7]): 3.51 ×10⁻⁶ cm/s; solubility [8]: 6 µM; half-life [10]: 72.7 min |
